# How the values were obtained:
# [1] = target: cAMP and cAMP-inhibited cGMP 3',5'-cyclic phosphodiesterase 10A (Homo sapiens, UniProt Q9Y233); test: In vitro assay with human PDE10A
# [2] = target: Neuropeptide Y receptor type 1 (Homo sapiens) (UniProt P25929); test: hNPY1 Cerep panel; conditions: Compound concentration 10.0 uM
# [3] = target: Toll-like receptor 4 (Homo sapiens) (UniProt O00206); test: Toll like receptor 4 Millipore kinase panel; conditions: Compound concentration 10.0 uM
# [4] = target: LIM domain kinase 1 (Homo sapiens) (UniProt P53667); test: LIM domain kinase 1 Millipore kinase panel; conditions: Compound concentration 10.0 uM
# [5] = target: Muscarinic acetylcholine receptor M5 (Homo sapiens) (UniProt P08912); conditions: Compound concentration 10.0 uM
# [6] = target: Protein kinase C beta type (Homo sapiens) (UniProt P05771); test: protein kinase C, beta 1 Millipore kinase panel; conditions: Compound concentration 10.0 uM
# Protein kinase C beta type (Homo sapiens), sequence (P05771 2-671 limits assumed): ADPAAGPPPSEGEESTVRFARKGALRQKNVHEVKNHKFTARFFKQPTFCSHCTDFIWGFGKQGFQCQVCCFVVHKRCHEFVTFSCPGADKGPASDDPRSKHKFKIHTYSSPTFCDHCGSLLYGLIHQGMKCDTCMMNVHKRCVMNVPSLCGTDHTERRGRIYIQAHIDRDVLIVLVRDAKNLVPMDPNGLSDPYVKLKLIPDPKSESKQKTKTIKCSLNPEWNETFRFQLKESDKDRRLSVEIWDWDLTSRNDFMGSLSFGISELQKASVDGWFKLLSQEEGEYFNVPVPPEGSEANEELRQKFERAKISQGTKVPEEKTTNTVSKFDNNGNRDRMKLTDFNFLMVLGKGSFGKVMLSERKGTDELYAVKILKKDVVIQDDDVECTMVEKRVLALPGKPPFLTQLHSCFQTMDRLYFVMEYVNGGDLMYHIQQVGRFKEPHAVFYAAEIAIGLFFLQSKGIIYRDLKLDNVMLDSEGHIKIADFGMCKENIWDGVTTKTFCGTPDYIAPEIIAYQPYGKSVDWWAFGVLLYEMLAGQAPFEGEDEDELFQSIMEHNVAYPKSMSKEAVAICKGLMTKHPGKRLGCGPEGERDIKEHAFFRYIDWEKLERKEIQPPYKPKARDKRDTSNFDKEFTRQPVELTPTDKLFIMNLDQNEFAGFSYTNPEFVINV
# [7] = target: D(1B) dopamine receptor (Homo sapiens) (UniProt P21918); conditions: Compound concentration 10.0 uM
# [8] = target: Serine/threonine-protein kinase 33 (Homo sapiens) (UniProt Q9BYT3); test: serine/threonine kinase 33 Millipore kinase panel; conditions: Compound concentration 10.0 uM
# Serine/threonine-protein kinase 33 (Homo sapiens), sequence (Q9BYT3 whole entry, looked up): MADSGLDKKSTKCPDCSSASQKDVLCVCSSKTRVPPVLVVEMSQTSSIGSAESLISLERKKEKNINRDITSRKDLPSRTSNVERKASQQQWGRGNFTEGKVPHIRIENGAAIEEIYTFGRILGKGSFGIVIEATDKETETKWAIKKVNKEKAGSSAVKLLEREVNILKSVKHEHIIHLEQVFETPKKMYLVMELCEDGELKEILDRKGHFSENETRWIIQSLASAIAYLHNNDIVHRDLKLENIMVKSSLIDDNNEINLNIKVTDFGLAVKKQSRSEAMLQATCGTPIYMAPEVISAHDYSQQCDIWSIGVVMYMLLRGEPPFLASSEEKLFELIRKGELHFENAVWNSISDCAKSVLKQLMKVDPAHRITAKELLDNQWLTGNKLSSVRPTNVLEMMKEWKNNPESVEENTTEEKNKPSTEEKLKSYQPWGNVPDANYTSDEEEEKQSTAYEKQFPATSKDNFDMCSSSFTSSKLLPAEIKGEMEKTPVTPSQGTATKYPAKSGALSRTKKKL
# [9] = target: Mitogen-activated protein kinase kinase kinase 9 (Homo sapiens) (UniProt P80192); test: mitogen-activated protein kinase kinase kinase 9 Millipore kinase panel; conditions: Compound concentration 10.0 uM
# [10] = target: Acetylcholinesterase (Homo sapiens) (UniProt P22303); test: hACHE Cerep panel; conditions: Compound concentration 10.0 uM
# Acetylcholinesterase (Homo sapiens), sequence (P22303 whole entry): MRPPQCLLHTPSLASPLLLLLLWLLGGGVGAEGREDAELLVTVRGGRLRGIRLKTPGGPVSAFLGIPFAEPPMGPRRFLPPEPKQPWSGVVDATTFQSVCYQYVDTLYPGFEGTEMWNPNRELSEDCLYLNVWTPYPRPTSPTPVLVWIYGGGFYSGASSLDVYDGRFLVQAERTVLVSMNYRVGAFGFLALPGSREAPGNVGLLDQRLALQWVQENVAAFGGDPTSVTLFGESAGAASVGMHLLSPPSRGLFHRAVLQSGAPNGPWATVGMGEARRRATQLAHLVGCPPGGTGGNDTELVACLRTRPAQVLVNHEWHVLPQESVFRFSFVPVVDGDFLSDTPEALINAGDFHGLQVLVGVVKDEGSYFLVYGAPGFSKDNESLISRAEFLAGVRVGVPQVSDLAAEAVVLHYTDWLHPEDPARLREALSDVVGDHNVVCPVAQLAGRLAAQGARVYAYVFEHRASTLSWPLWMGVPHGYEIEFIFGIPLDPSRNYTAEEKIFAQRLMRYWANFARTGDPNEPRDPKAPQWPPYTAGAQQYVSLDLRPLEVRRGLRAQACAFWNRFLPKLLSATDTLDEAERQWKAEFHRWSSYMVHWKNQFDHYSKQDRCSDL
# [11] = target: Dual specificity mitogen-activated protein kinase kinase 6 (Homo sapiens) (UniProt P52564); test: mitogen-activated protein kinase kinase 6 Millipore kinase panel; conditions: Compound concentration 10.0 uM
# [12] = target: Vascular endothelial growth factor receptor 1 (Homo sapiens) (UniProt P17948); test: fms-related tyrosine kinase 1 Millipore kinase panel; conditions: Compound concentration 10.0 uM
# [13] = target: Mitogen-activated protein kinase kinase kinase 5 (Homo sapiens) (UniProt Q99683); test: mitogen-activated protein kinase kinase kinase 5 Millipore kinase panel; conditions: Compound concentration 10.0 uM
# [14] = target: Vascular endothelial growth factor receptor 3 (Homo sapiens) (UniProt P35916); test: fms-related tyrosine kinase 4 Millipore kinase panel; conditions: Compound concentration 10.0 uM
# [15] = target: Insulin-like growth factor 1 receptor (Homo sapiens) (UniProt P08069); test: insulin-like growth factor 1 receptor (activated) Millipore kinase panel; conditions: Compound concentration 10.0 uM
# [16] = target: Histamine H1 receptor (Homo sapiens) (UniProt P35367); test: hH1 Cerep panel; conditions: Compound concentration 10.0 uM
# Histamine H1 receptor (Homo sapiens), sequence (P35367 whole entry): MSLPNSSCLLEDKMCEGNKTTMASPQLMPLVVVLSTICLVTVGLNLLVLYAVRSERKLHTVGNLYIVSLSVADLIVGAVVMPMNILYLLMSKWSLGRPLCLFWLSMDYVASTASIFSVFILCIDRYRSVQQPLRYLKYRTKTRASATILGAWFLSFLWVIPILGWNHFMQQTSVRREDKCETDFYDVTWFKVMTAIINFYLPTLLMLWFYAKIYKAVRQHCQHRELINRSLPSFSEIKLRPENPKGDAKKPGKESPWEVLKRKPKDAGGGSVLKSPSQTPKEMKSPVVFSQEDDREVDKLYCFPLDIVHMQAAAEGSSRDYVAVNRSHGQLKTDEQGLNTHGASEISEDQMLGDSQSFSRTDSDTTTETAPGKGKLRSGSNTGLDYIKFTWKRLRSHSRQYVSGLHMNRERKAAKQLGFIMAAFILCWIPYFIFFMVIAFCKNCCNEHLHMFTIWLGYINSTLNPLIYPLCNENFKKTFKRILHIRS
# [17] = target: Serine/threonine-protein kinase 3 (Homo sapiens) (UniProt Q13188); test: serine/threonine kinase 3 Millipore kinase panel; conditions: Compound concentration 10.0 uM
# [18] = target: T1, 5-hydroxytryptamine receptor 1A (Homo sapiens) (UniProt P08908); test: h5HT1A Cerep panel; conditions: Compound concentration 10.0 uM
# T1 sequence (whole entry): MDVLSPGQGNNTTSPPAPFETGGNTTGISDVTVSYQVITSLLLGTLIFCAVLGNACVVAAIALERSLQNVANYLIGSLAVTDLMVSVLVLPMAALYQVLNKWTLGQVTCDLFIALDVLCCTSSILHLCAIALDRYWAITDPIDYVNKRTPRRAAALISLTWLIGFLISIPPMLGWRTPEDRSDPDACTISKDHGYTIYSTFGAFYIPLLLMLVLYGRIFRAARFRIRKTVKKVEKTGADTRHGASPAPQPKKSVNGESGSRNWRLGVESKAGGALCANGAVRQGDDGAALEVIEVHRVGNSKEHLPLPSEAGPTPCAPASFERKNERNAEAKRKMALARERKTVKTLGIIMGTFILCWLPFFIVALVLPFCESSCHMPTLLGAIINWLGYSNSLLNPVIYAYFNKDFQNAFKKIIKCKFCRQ
# [19] = target: Tyrosine-protein kinase Fgr (Homo sapiens) (UniProt P09769); test: Gardner-Rasheed feline sarcoma viral (v-fgr) oncogene homolog Millipore kinase panel; conditions: Compound concentration 10.0 uM
# [20] = target: Homeodomain-interacting protein kinase 3 (Homo sapiens) (UniProt Q9H422); test: homeodomain interacting protein kinase 3 Millipore kinase panel; conditions: Compound concentration 10.0 uM
# [21] = target: Tyrosine-protein kinase FRK (Homo sapiens) (UniProt P42685); test: fyn-related kinase Millipore kinase panel; conditions: Compound concentration 10.0 uM
# [22] = target: Sodium-dependent dopamine transporter (Homo sapiens, UniProt Q01959); test: hDAT Cerep panel; conditions: Compound concentration 10.0 uM
# [23] = target: Cannabinoid receptor 2 (Homo sapiens) (UniProt P34972); test: hCB2 Cerep panel; conditions: Compound concentration 10.0 uM
# [24] = target: 5-hydroxytryptamine receptor 1B (Rattus norvegicus) (UniProt P28564); test: r5HT1B Cerep panel; conditions: Compound concentration 10.0 uM
# 5-hydroxytryptamine receptor 1B (Rattus norvegicus), sequence (P28564 whole entry): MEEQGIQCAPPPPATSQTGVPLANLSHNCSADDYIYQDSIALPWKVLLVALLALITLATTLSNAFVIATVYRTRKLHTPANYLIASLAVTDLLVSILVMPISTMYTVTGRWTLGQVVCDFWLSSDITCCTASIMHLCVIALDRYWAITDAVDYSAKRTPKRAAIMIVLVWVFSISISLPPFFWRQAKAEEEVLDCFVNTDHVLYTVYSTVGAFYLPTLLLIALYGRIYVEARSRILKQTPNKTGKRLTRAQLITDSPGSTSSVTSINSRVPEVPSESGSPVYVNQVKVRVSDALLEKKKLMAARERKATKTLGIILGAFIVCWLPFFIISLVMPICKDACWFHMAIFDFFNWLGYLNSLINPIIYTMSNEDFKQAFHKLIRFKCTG
# [25] = target: Cholecystokinin receptor type A (Homo sapiens) (UniProt P32238); test: hCCKA Cerep panel; conditions: Compound concentration 10.0 uM
# [26] = target: Alpha-2B adrenergic receptor (Homo sapiens, UniProt P18089); test: GPCRScan assay: inhibition of Alpha2B; parameters: radioligand conc. used [nm] 1.5 – 2.0, parental cells HEKT
# Alpha-2B adrenergic receptor, sequence (P18089 whole entry): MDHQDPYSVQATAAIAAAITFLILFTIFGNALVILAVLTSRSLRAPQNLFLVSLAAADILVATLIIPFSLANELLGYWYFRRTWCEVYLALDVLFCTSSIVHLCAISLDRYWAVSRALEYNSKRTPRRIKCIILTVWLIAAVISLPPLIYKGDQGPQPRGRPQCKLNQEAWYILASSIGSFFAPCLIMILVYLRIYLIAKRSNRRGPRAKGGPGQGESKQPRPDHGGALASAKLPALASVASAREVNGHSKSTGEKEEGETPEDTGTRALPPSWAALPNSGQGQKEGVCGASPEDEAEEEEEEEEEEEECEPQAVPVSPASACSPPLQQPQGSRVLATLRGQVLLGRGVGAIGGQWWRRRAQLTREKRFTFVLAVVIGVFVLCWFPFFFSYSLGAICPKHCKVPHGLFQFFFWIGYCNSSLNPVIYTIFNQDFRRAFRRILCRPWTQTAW
# [27] = target: Serine/threonine-protein kinase Nek7 (Homo sapiens) (UniProt Q8TDX7); test: NIMA -related kinase 7 Millipore kinase panel; conditions: Compound concentration 10.0 uM
# [28] = target: SRSF protein kinase 3 (Homo sapiens) (UniProt Q9UPE1); test: SFRS protein kinase 3 Millipore kinase panel; conditions: Compound concentration 10.0 uM
# [29] = target: RAF proto-oncogene serine/threonine-protein kinase (Homo sapiens) (UniProt P04049); test: v-raf-1 murine leukemia viral oncogene homolog 1 Millipore kinase panel; conditions: Compound concentration 10.0 uM
# RAF proto-oncogene serine/threonine-protein kinase (Homo sapiens), sequence (P04049 whole entry): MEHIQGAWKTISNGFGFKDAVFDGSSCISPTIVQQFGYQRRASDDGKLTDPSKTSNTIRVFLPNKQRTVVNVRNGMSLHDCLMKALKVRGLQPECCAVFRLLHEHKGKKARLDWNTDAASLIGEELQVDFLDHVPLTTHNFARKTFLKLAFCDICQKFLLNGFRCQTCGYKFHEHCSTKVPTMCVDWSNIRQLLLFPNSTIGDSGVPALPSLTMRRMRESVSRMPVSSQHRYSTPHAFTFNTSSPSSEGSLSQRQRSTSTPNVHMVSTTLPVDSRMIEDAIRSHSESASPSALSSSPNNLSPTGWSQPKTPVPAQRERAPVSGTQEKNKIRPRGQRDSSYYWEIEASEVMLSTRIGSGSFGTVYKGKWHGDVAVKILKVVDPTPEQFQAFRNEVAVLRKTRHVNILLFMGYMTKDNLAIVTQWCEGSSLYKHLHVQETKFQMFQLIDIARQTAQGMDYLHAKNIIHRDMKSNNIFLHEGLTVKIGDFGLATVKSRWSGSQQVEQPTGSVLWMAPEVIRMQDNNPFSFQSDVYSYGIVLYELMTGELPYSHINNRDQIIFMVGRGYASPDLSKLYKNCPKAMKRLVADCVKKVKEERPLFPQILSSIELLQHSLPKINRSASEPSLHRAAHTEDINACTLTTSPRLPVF
# [30] = target: Neurotensin receptor type 1 (Homo sapiens) (UniProt P30989); test: hNT1 Cerep panel; conditions: Compound concentration 10.0 uM
# [31] = target: Tyrosine-protein kinase HCK (Homo sapiens) (UniProt P08631); test: hemopoietic cell kinase Millipore kinase panel; conditions: Compound concentration 10.0 uM
# [32] = target: 5'-AMP-activated protein kinase catalytic subunit alpha-2 (Homo sapiens) (UniProt P54646); test: protein kinase, AMP-activated, alpha 2 catalytic subunit Millipore kinase panel; conditions: Compound concentration 10.0 uM
# 5'-AMP-activated protein kinase catalytic subunit alpha-2 (Homo sapiens), sequence (P54646 whole entry, looked up): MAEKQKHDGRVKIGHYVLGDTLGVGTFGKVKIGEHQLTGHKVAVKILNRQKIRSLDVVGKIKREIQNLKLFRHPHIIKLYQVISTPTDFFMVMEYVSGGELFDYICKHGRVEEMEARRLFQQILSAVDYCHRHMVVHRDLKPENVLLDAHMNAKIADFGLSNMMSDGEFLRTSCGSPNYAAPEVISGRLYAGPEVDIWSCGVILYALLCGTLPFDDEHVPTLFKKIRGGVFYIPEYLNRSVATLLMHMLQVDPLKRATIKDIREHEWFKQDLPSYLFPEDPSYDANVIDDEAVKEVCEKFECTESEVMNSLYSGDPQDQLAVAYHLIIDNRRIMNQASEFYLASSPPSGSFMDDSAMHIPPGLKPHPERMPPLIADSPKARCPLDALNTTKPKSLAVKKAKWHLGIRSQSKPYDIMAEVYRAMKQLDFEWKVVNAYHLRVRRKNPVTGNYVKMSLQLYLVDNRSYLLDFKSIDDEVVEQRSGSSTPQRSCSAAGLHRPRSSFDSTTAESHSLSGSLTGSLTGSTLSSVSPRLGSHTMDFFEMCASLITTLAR
# [33] = PPAR1C Cerep panel; conditions: Compound concentration 10.0 uM
# [34] = target: RAC-alpha serine/threonine-protein kinase (Homo sapiens) (UniProt P31749); test: v-akt murine thymoma viral oncogene homolog 1 Millipore kinase panel; conditions: Compound concentration 10.0 uM
# [35] = target: T2, 5-hydroxytryptamine receptor 2C (Homo sapiens) (UniProt P28335); test: h5HT2C Cerep panel; conditions: Compound concentration 10.0 uM
# T2 sequence (whole entry): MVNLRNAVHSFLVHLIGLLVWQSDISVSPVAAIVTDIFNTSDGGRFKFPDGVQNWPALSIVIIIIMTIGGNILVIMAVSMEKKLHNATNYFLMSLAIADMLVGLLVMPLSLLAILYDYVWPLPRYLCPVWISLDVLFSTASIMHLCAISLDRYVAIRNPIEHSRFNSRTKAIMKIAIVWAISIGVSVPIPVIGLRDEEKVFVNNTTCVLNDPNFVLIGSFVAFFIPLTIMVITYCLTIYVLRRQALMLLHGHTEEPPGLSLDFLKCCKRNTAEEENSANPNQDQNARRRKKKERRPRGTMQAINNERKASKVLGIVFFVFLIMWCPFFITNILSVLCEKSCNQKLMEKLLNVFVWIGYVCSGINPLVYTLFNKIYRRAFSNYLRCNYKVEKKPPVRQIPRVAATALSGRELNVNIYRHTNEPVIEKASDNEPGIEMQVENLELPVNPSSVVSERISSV
# [36] = target: Mitogen-activated protein kinase 13 (Homo sapiens) (UniProt O15264); test: mitogen-activated protein kinase 13 Millipore kinase panel; conditions: Compound concentration 10.0 uM
# [37] = target: Cyclin-dependent kinase 1/cyclin B (Homo sapiens) (UniProt P06493+P14635+Q8WWL7+O95067); test: cyclin-dependent kinase 1 / clyclinB Millipore kinase panel; type: protein-complex assay; conditions: Compound concentration 10.0 uM
# [38] = target: Tyrosine-protein kinase Lck (Homo sapiens) (UniProt P06239); test: lymphocyte-specific protein tyrosine kinase Millipore kinase panel; conditions: Compound concentration 10.0 uM
# Neuropeptide Y receptor type 1 (Homo sapiens), sequence (P25929 whole entry): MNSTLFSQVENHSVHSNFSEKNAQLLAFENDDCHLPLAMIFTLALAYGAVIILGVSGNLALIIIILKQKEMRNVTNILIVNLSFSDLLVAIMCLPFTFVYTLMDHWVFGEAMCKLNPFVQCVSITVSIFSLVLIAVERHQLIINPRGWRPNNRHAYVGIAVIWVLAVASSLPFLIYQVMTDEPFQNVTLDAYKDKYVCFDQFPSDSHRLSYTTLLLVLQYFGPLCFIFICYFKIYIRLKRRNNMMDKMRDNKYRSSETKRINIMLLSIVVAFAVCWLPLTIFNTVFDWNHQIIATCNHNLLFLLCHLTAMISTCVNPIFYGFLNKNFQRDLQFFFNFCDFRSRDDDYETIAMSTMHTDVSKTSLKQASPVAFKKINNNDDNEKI
compound,measurement,setting,value
c1ccc(C2CCN(c3cnc4c(N5CCOCC5)nccn34)CC2)cc1,IC50,[1],> 10 µM (not active)
COCCc1ccc(-c2c(C)nc3c(N4CCOCC4)ccnn23)cn1 [JNJ-42396302],effect,[2],0.15%
same,inhibition,[3],-5.24%
same,inhibition,[4],-3%
same,inhibition,[5],-1.98%
same,inhibition,[6],-5%
same,inhibition,[7],25.3%
same,inhibition,[8],-1%
same,inhibition,[9],5%
same,effect,[10],0.2%
same,inhibition,[11],-5%
same,inhibition,[12],-5%
same,inhibition,[13],-2%
same,inhibition,[14],-4%
same,inhibition,[15],3%
same,effect,[16],2.05%
same,inhibition,[17],-8%
same,effect,[18],8.65%
same,inhibition,[19],7%
same,inhibition,[20],-6%
same,inhibition,[21],-7%
same,effect,[22],4.5%
same,effect,[23],6.1%
same,effect,[24],-2.55%
same,effect,[25],-19.6%
same,Ki,[26],> 10 µM
same,pKi,[26],< 5
same,inhibition,[27],2%
same,inhibition,[28],-6%
same,inhibition,[29],10%
same,effect,[30],12.3%
same,inhibition,[31],-2%
same,inhibition,[32],2%
same,effect,[33],-2.05%
same,inhibition,[34],35%
same,effect,[35],-1.95%
same,inhibition,[36],4%
same,inhibition,[37],5%
same,inhibition,[38],13%

# — ChEMBL document CHEMBL4800727 (2021)
